These results are taken from article PMC8467814, “RSK1 vs. RSK2 Inhibitory Activity of the Marine β-Carboline Alkaloid Manzamine A: A Biochemical, Cervical Cancer Protein Expression, and Computational Study” (Marine Drugs, 2021).

For assay [1], the target named is T1, RSK2 (90 kDa ribosomal protein S6 kinase 2) (Homo sapiens, UniProt P51812).
T1 construct: gene RPS6KA3
Nature of the assay: radiometric […]-ATP kinase assay with KKLNRTLSVA peptide, P81 filter. It counts as biochemical.

Assay [2] concerns the target T2, RSK1 (90 kDa ribosomal protein S6 kinase 1; MAPKAP-K1α) (Rattus norvegicus, UniProt Q63531).
T2 construct: gene Rps6ka1
Nature of the assay: radiometric […]-ATP kinase assay with KKLNRTLSVA peptide, P81 filter; also […] inhibition at […] in kinase panel. In kind it is biochemical.

T1 sequence (P51812 whole entry): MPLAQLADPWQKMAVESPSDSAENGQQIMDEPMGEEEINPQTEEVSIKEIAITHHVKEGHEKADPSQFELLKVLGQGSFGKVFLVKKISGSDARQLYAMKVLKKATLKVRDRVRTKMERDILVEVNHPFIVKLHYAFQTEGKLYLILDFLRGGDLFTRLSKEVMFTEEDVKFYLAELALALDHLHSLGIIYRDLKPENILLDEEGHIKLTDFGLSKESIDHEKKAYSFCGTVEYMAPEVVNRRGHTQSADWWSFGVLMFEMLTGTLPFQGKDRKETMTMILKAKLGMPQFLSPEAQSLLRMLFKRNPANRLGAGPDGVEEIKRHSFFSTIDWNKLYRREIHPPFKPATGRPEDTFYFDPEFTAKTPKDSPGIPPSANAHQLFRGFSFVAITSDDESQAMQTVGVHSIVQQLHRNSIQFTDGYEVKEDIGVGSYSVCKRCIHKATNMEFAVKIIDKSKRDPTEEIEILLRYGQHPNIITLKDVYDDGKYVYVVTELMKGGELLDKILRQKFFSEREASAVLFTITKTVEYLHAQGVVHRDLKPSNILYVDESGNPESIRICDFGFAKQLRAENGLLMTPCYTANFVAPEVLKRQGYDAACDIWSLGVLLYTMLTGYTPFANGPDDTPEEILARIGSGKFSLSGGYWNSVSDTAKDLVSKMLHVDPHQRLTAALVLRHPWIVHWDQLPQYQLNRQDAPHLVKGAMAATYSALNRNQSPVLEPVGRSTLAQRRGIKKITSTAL
T2 sequence (Q63531 whole entry): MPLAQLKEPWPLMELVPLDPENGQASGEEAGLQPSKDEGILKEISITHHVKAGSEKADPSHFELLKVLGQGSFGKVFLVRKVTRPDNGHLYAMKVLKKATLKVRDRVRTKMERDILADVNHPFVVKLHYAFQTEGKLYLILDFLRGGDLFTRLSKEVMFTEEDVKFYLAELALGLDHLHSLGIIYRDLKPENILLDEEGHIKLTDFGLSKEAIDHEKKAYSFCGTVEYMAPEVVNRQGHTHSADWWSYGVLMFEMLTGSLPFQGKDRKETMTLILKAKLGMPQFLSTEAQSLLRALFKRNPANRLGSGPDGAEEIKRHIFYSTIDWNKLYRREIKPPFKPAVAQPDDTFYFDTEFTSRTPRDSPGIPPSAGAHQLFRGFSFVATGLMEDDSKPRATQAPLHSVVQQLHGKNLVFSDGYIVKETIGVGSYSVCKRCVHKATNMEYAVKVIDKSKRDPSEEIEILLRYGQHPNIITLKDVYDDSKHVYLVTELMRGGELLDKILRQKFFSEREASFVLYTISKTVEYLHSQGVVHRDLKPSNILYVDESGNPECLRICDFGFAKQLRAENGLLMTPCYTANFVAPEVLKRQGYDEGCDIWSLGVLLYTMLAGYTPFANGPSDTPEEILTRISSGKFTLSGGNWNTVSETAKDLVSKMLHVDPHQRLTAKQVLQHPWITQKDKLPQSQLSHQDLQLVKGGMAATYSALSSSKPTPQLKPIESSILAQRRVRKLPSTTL

`O[C@]12C=C(c3nccc4c3[nH]c3ccccc34)[C@@H]3CCN(CCCC/C=C\CC1)C[C@@]31C[C@@H]3/C=C\CCCCN3[C@H]12` [MZA, Manzamine A]: the half-maximal inhibitory concentration (IC50) (commonly the concentration at which inhibition is half-maximal) in assay [1] stood at 108 µM; in assay [2], 15 µM.
